Experimental data as given in EP0443862A1, “Triamine derivatives and their acid-addition salts” (SUMITOMO PHARMACEUTICALS COMPANY, LIMITED, priority 1990, dated 1991).

What follows are molecules tested on NMDA-induced tonic convulsion (assay: Inhibition of NMDA-induced tonic convulsion in mice). Conditions: Mus musculus, ip, 0.5 h, i.p., 30 minutes before NMDA injected intracerebroventicularly, read-out: Inhibition potency of NMDA-induced tonic convulsion (ED50; mg/kg, i.p.).
Format: in vivo
Procedure: A test compound was injected intraperitoneally in mice. After 30 minutes from the administration, NMDA was injected intracerebroventicularly, and it was observed whether there was a tonic convulsion. ED₅₀ (mg/kg, i.p.) was calculated out from the inhibition rates.
Work on `c1cnc2c(NCCNCCNc3cccc4cccnc34)cccc2c1` [Example 1] yielded an ED50 of 16.4 mg/kg.
For `c1ccc2c(NCCNCCNc3cccc4ccccc34)cccc2c1` [Example 2], the ED50 was over 30 mg/kg.
Work on `c1cc2c(c(NCCNCCNc3cccc4c3CCCC4)c1)CCCC2` [Example 3] yielded an ED50 of over 30 mg/kg.
Molecule `c1ccc2c(NCCCNCCNc3cccc4ccccc34)cccc2c1` [Example 4] has an ED50 of over 30 mg/kg.
In the case of `Clc1ccc(NCCNCCNc2ccc(Cl)c3ccccc23)c2ccccc12` [Example 5], the ED50 is reported as 24.8 mg/kg.
